# Oligonucleotides are given in HELM: sugar(base)linkage, 5' to 3'; d 2'-deoxyribose, r ribose, m 2'-O-methylribose, p phosphate. ss, as = sense and antisense strand
# Molecular target: Cacnb1 (rat)
# Assay: reporter assay of Huesken 2005
# Settings: siRNA
# Note: test concentration or dose not given here.
row,Substance,normalised inhibition (eCFP-eYFP dual reporter)
1,RNA1{r(G)p.r(C)p.r(A)p.r(G)p.r(A)p.r(G)p.r(U)p.r(C)p.r(C)p.r(U)p.r(A)p.r(C)p.r(A)p.r(C)p.r(G)p.r(A)p.r(G)p.r(C)p.r(C)p.d(T)p.d(T)}|RNA2{r(G)p.r(G)p.r(C)p.r(U)p.r(C)p.r(G)p.r(U)p.r(G)p.r(U)p.r(A)p.r(G)p.r(G)p.r(A)p.r(C)p.r(U)p.r(C)p.r(U)p.r(G)p.r(C)p.d(T)p.d(G)}$$$RNA1{StrandType:ss}|RNA2{StrandType:as}$,79.4%
2,RNA1{r(G)p.r(C)p.r(C)p.r(A)p.r(A)p.r(A)p.r(A)p.r(C)p.r(C)p.r(G)p.r(C)p.r(C)p.r(U)p.r(C)p.r(A)p.r(G)p.r(C)p.r(U)p.r(C)p.d(T)p.d(T)}|RNA2{r(G)p.r(A)p.r(G)p.r(C)p.r(U)p.r(G)p.r(A)p.r(G)p.r(G)p.r(C)p.r(G)p.r(G)p.r(U)p.r(U)p.r(U)p.r(U)p.r(G)p.r(G)p.r(C)p.d(G)p.d(C)}$$$RNA1{StrandType:ss}|RNA2{StrandType:as}$,54.1%
3,RNA1{r(G)p.r(C)p.r(C)p.r(C)p.r(A)p.r(C)p.r(A)p.r(G)p.r(G)p.r(G)p.r(C)p.r(A)p.r(A)p.r(A)p.r(U)p.r(A)p.r(C)p.r(A)p.r(G)p.d(T)p.d(T)}|RNA2{r(C)p.r(U)p.r(G)p.r(U)p.r(A)p.r(U)p.r(U)p.r(U)p.r(G)p.r(C)p.r(C)p.r(C)p.r(U)p.r(G)p.r(U)p.r(G)p.r(G)p.r(G)p.r(C)p.d(T)p.d(G)}$$$RNA1{StrandType:ss}|RNA2{StrandType:as}$,75.8%
4,RNA1{r(G)p.r(G)p.r(C)p.r(C)p.r(G)p.r(G)p.r(U)p.r(U)p.r(C)p.r(U)p.r(G)p.r(G)p.r(G)p.r(G)p.r(C)p.r(G)p.r(C)p.r(A)p.r(A)p.d(T)p.d(T)}|RNA2{r(U)p.r(U)p.r(G)p.r(C)p.r(G)p.r(C)p.r(C)p.r(C)p.r(C)p.r(A)p.r(G)p.r(A)p.r(A)p.r(C)p.r(C)p.r(G)p.r(G)p.r(C)p.r(C)p.d(C)p.d(A)}$$$RNA1{StrandType:ss}|RNA2{StrandType:as}$,79.6%
5,RNA1{r(G)p.r(G)p.r(C)p.r(U)p.r(C)p.r(C)p.r(U)p.r(G)p.r(G)p.r(G)p.r(A)p.r(A)p.r(G)p.r(A)p.r(G)p.r(G)p.r(A)p.r(G)p.r(G)p.d(T)p.d(T)}|RNA2{r(C)p.r(C)p.r(U)p.r(C)p.r(C)p.r(U)p.r(C)p.r(U)p.r(U)p.r(C)p.r(C)p.r(C)p.r(A)p.r(G)p.r(G)p.r(A)p.r(G)p.r(C)p.r(C)p.d(C)p.d(T)}$$$RNA1{StrandType:ss}|RNA2{StrandType:as}$,46.7%
6,RNA1{r(G)p.r(G)p.r(G)p.r(G)p.r(A)p.r(G)p.r(C)p.r(U)p.r(G)p.r(G)p.r(G)p.r(C)p.r(C)p.r(A)p.r(G)p.r(C)p.r(C)p.r(C)p.r(C)p.d(T)p.d(T)}|RNA2{r(G)p.r(G)p.r(G)p.r(G)p.r(C)p.r(U)p.r(G)p.r(G)p.r(C)p.r(C)p.r(C)p.r(A)p.r(G)p.r(C)p.r(U)p.r(C)p.r(C)p.r(C)p.r(C)p.d(G)p.d(G)}$$$RNA1{StrandType:ss}|RNA2{StrandType:as}$,19.2%
7,RNA1{r(G)p.r(U)p.r(A)p.r(C)p.r(U)p.r(G)p.r(C)p.r(A)p.r(G)p.r(A)p.r(G)p.r(G)p.r(C)p.r(U)p.r(C)p.r(A)p.r(U)p.r(C)p.r(A)p.d(T)p.d(T)}|RNA2{r(U)p.r(G)p.r(A)p.r(U)p.r(G)p.r(A)p.r(G)p.r(C)p.r(C)p.r(U)p.r(C)p.r(U)p.r(G)p.r(C)p.r(A)p.r(G)p.r(U)p.r(A)p.r(C)p.d(C)p.d(T)}$$$RNA1{StrandType:ss}|RNA2{StrandType:as}$,73.6%
8,RNA1{r(G)p.r(U)p.r(G)p.r(C)p.r(C)p.r(A)p.r(A)p.r(A)p.r(C)p.r(A)p.r(G)p.r(A)p.r(A)p.r(G)p.r(C)p.r(A)p.r(G)p.r(A)p.r(A)p.d(T)p.d(T)}|RNA2{r(U)p.r(U)p.r(C)p.r(U)p.r(G)p.r(C)p.r(U)p.r(U)p.r(C)p.r(U)p.r(G)p.r(U)p.r(U)p.r(U)p.r(G)p.r(G)p.r(C)p.r(A)p.r(C)p.d(T)p.d(G)}$$$RNA1{StrandType:ss}|RNA2{StrandType:as}$,82.1%
9,RNA1{r(G)p.r(U)p.r(G)p.r(C)p.r(G)p.r(G)p.r(A)p.r(G)p.r(G)p.r(G)p.r(U)p.r(G)p.r(G)p.r(U)p.r(G)p.r(G)p.r(G)p.r(C)p.r(C)p.d(T)p.d(T)}|RNA2{r(G)p.r(G)p.r(C)p.r(C)p.r(C)p.r(A)p.r(C)p.r(C)p.r(A)p.r(C)p.r(C)p.r(C)p.r(U)p.r(C)p.r(C)p.r(G)p.r(C)p.r(A)p.r(C)p.d(A)p.d(G)}$$$RNA1{StrandType:ss}|RNA2{StrandType:as}$,52.4%
10,RNA1{r(U)p.r(A)p.r(C)p.r(A)p.r(C)p.r(G)p.r(G)p.r(A)p.r(G)p.r(C)p.r(C)p.r(A)p.r(G)p.r(G)p.r(A)p.r(G)p.r(A)p.r(C)p.r(U)p.d(T)p.d(T)}|RNA2{r(A)p.r(G)p.r(U)p.r(C)p.r(U)p.r(C)p.r(C)p.r(U)p.r(G)p.r(G)p.r(C)p.r(U)p.r(C)p.r(C)p.r(G)p.r(U)p.r(G)p.r(U)p.r(A)p.d(G)p.d(A)}$$$RNA1{StrandType:ss}|RNA2{StrandType:as}$,54.9%
11,RNA1{r(U)p.r(A)p.r(C)p.r(A)p.r(U)p.r(C)p.r(C)p.r(G)p.r(C)p.r(U)p.r(G)p.r(A)p.r(G)p.r(A)p.r(G)p.r(G)p.r(C)p.r(A)p.r(G)p.d(T)p.d(T)}|RNA2{r(C)p.r(U)p.r(G)p.r(C)p.r(C)p.r(U)p.r(C)p.r(U)p.r(C)p.r(A)p.r(G)p.r(C)p.r(G)p.r(G)p.r(A)p.r(U)p.r(G)p.r(U)p.r(A)p.d(G)p.d(A)}$$$RNA1{StrandType:ss}|RNA2{StrandType:as}$,39.5%
12,RNA1{r(U)p.r(C)p.r(C)p.r(U)p.r(G)p.r(C)p.r(A)p.r(C)p.r(A)p.r(U)p.r(C)p.r(A)p.r(A)p.r(G)p.r(G)p.r(A)p.r(G)p.r(A)p.r(A)p.d(T)p.d(T)}|RNA2{r(U)p.r(U)p.r(C)p.r(U)p.r(C)p.r(C)p.r(U)p.r(U)p.r(G)p.r(A)p.r(U)p.r(G)p.r(U)p.r(G)p.r(C)p.r(A)p.r(G)p.r(G)p.r(A)p.d(A)p.d(G)}$$$RNA1{StrandType:ss}|RNA2{StrandType:as}$,94%
13,RNA1{r(U)p.r(C)p.r(G)p.r(A)p.r(C)p.r(A)p.r(G)p.r(A)p.r(G)p.r(C)p.r(A)p.r(C)p.r(G)p.r(U)p.r(G)p.r(C)p.r(C)p.r(C)p.r(C)p.d(T)p.d(T)}|RNA2{r(G)p.r(G)p.r(G)p.r(G)p.r(C)p.r(A)p.r(C)p.r(G)p.r(U)p.r(G)p.r(C)p.r(U)p.r(C)p.r(U)p.r(G)p.r(U)p.r(C)p.r(G)p.r(A)p.d(C)p.d(T)}$$$RNA1{StrandType:ss}|RNA2{StrandType:as}$,39.9%
14,RNA1{r(U)p.r(C)p.r(G)p.r(G)p.r(G)p.r(A)p.r(G)p.r(G)p.r(C)p.r(U)p.r(G)p.r(G)p.r(U)p.r(G)p.r(A)p.r(A)p.r(G)p.r(G)p.r(A)p.d(T)p.d(T)}|RNA2{r(U)p.r(C)p.r(C)p.r(U)p.r(U)p.r(C)p.r(A)p.r(C)p.r(C)p.r(A)p.r(G)p.r(C)p.r(C)p.r(U)p.r(C)p.r(C)p.r(C)p.r(G)p.r(A)p.d(T)p.d(C)}$$$RNA1{StrandType:ss}|RNA2{StrandType:as}$,73.7%
15,RNA1{r(U)p.r(G)p.r(G)p.r(A)p.r(C)p.r(A)p.r(G)p.r(C)p.r(C)p.r(U)p.r(U)p.r(C)p.r(G)p.r(C)p.r(C)p.r(U)p.r(G)p.r(C)p.r(U)p.d(T)p.d(T)}|RNA2{r(A)p.r(G)p.r(C)p.r(A)p.r(G)p.r(G)p.r(C)p.r(G)p.r(A)p.r(A)p.r(G)p.r(G)p.r(C)p.r(U)p.r(G)p.r(U)p.r(C)p.r(C)p.r(A)p.d(G)p.d(T)}$$$RNA1{StrandType:ss}|RNA2{StrandType:as}$,39.5%
16,RNA1{r(U)p.r(G)p.r(G)p.r(U)p.r(G)p.r(G)p.r(G)p.r(A)p.r(C)p.r(C)p.r(A)p.r(U)p.r(C)p.r(G)p.r(C)p.r(U)p.r(C)p.r(A)p.r(A)p.d(T)p.d(T)}|RNA2{r(U)p.r(U)p.r(G)p.r(A)p.r(G)p.r(C)p.r(G)p.r(A)p.r(U)p.r(G)p.r(G)p.r(U)p.r(C)p.r(C)p.r(C)p.r(A)p.r(C)p.r(C)p.r(A)p.d(G)p.d(G)}$$$RNA1{StrandType:ss}|RNA2{StrandType:as}$,71.2%
17,RNA1{r(U)p.r(U)p.r(A)p.r(G)p.r(C)p.r(C)p.r(C)p.r(A)p.r(G)p.r(C)p.r(U)p.r(C)p.r(G)p.r(A)p.r(G)p.r(A)p.r(A)p.r(A)p.r(G)p.d(T)p.d(T)}|RNA2{r(C)p.r(U)p.r(U)p.r(U)p.r(C)p.r(U)p.r(C)p.r(G)p.r(A)p.r(G)p.r(C)p.r(U)p.r(G)p.r(G)p.r(G)p.r(C)p.r(U)p.r(A)p.r(A)p.d(G)p.d(G)}$$$RNA1{StrandType:ss}|RNA2{StrandType:as}$,63.7%
18,RNA1{r(U)p.r(U)p.r(U)p.r(C)p.r(A)p.r(U)p.r(C)p.r(C)p.r(C)p.r(C)p.r(A)p.r(G)p.r(C)p.r(C)p.r(C)p.r(U)p.r(G)p.r(U)p.r(C)p.d(T)p.d(T)}|RNA2{r(G)p.r(A)p.r(C)p.r(A)p.r(G)p.r(G)p.r(G)p.r(C)p.r(U)p.r(G)p.r(G)p.r(G)p.r(G)p.r(A)p.r(U)p.r(G)p.r(A)p.r(A)p.r(A)p.d(C)p.d(C)}$$$RNA1{StrandType:ss}|RNA2{StrandType:as}$,16.4%

# From the OligoGym collection
